In ChEMBL document CHEMBL2390830 (Eur J Med Chem, 2013) one finds Ki and IC50 data, which are given here for 23 compounds.

Assay [1] addresses T1, 5-hydroxytryptamine receptor 1A (Rattus norvegicus, UniProt P19327).
T1 sequence (P19327 whole entry): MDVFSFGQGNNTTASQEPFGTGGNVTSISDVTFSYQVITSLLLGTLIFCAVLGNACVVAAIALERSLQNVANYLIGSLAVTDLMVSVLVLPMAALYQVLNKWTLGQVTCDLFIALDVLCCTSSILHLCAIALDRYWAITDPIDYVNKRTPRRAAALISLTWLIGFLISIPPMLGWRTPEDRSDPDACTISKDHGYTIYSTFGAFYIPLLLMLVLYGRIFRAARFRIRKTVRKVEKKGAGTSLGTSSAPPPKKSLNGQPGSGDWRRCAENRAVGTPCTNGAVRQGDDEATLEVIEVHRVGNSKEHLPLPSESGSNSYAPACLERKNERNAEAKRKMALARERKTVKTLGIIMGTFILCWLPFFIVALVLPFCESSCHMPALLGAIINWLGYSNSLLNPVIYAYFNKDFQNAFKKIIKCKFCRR
The assay can be described thus: Displacement of [3H]8-OH-DPAT from 5-HT1A receptor in Wistar rat cerebral hippocampus membrane after 10 mins. Type of assay: tissue-based. The following applies: read-out: Ki(app). Background: In a radioligand displacement assay an active substance lowers the binding of a labelled ligand.

A short description of assay [2]: Binding affinity to P2X receptor (unknown origin) by radioligand displacement assay. The arrangement: species or system Homo sapiens.
A short description of assay [3]: Binding affinity to somatostatin receptor (unknown origin) by radioligand displacement assay. Also noted: species or system Homo sapiens.
The nature of assay [4]: Binding affinity to human PCP receptor by radioligand displacement assay.
Assay [5] is described as follows: Binding affinity to P2Y receptor (unknown origin) by radioligand displacement assay. Also noted: species or system Homo sapiens.
A short description of assay [6]: Binding affinity to sodium channel site 2 (unknown origin) by radioligand displacement assay. The arrangement: species or system Homo sapiens.
The target of assay [7] is Voltage-gated L-type calcium channel (Homo sapiens, UniProt Q13936+Q13698+Q01668+O60840). The assay can be described thus: Binding affinity to L-Ca2+ channel verapamil site (unknown origin) by radioligand displacement assay.
For assay [8], the target named is T2, Muscarinic acetylcholine receptor M5 (Homo sapiens, UniProt P08912).
T2 sequence (P08912 whole entry): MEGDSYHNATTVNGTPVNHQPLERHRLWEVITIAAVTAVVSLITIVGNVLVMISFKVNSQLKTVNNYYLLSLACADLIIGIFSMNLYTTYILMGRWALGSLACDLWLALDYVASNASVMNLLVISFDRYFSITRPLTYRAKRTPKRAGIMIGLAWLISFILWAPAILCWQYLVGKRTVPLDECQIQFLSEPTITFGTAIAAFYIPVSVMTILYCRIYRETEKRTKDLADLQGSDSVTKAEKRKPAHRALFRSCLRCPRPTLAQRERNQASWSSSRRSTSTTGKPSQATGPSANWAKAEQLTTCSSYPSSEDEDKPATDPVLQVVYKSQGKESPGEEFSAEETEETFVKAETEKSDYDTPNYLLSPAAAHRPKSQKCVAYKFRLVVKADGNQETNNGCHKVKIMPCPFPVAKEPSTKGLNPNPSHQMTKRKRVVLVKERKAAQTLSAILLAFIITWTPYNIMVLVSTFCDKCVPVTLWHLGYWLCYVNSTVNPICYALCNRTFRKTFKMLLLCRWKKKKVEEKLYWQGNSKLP
The assay can be described thus: Binding affinity to human muscarinic M5 receptor by radioligand displacement assay.

Assay [9] in a line: Binding affinity to human PACAP receptor by radioligand displacement assay.
Assay [10] in a line: Binding affinity to peripheral BZD receptor (unknown origin) by radioligand displacement assay. The arrangement: species or system Homo sapiens.
The target in assay [11] is T3, 5-hydroxytryptamine receptor 2C (Homo sapiens, UniProt P28335).
T3 sequence (P28335 whole entry): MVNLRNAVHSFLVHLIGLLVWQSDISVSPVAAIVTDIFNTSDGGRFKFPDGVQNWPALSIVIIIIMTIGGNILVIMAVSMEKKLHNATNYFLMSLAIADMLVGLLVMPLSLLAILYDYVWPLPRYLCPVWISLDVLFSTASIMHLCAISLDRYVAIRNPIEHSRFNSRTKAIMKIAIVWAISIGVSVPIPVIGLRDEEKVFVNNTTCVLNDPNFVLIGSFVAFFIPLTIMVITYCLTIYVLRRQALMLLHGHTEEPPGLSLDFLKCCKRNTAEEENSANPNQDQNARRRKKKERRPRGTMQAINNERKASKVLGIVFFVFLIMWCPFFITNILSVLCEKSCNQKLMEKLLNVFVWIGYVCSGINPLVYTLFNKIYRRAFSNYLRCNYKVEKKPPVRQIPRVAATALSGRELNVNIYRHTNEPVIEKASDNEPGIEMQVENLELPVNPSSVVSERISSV
The assay can be described thus: Binding affinity to human 5-HT2C receptor by radioligand displacement assay.

Assay [12] is described as follows: Binding affinity to GABA-gated chloride channel (unknown origin) by radioligand displacement assay. Also noted: species or system Homo sapiens.

Counter-ions that a name gives are not always drawn.

With `COc1ccccc1N1CCN(CCCN2Cc3nc4ccccc4cc3C2=O)CC1`, the Ki in assay [1] came to 104 nM.

On to `COc1ccccc1N1CCN(CCCCCN2Cc3nc4ccccc4cc3C2=O)CC1`, for which the Ki in assay [1] turned out to be 20 nM. In assay [2], `Nc1ncnc2c1ncn2[C@@H]1O[C@H](COP(=O)(O)CP(=O)(O)OP(=O)(O)O)[C@@H](O)[C@H]1O` [DIPHOSPHOMETHYLPHOSPHONIC ACID ADENOSYL ESTER] showed an IC50 of 2.1 nM and a Ki of 0.97 nM. With `C[C@H](N)C(=O)NCC(=O)N[C@H]1CSSC[C@@H](C(=O)O)NC(=O)[C@H](CO)NC(=O)[C@H]([C@@H](C)O)NC(=O)[C@H](Cc2ccccc2)NC(=O)[C@H]([C@@H](C)O)NC(=O)[C@H](CCCCN)NC(=O)[C@H](Cc2c[nH]c3ccccc23)NC(=O)[C@H](Cc2ccccc2)NC(=O)[C@H](Cc2ccccc2)NC(=O)[C@H](CC(N)=O)NC(=O)[C@H](CCCCN)NC1=O` [SOMATOSTATIN], in assay [3], the IC50 amounted to 0.33 nM and the Ki worked out at 0.2 nM. In assay [4], `C[C@]12N[C@H](Cc3ccccc31)c1ccccc12` [DIZOCILPINE MALEATE] displayed an IC50 of 4.3 nM and a Ki of 2.4 nM.

`O=C1c2c(c(Cl)nc3ccccc23)CN1CCCCN1CCN(c2cccc(Cl)c2Cl)CC1`: the Ki in assay [1] came to 31 nM. Take `O=C1c2c(c(Cl)nc3ccccc23)CN1CCCCCN1CCN(c2cccc(Cl)c2Cl)CC1`: the Ki in assay [1] came to 878 nM.

For `Nc1ncnc2c1ncn2[C@H]1C[C@H](O)[C@@H](COP(O)(=S)OP(=O)(O)OP(=O)(O)O)O1` (some centres undefined), in assay [5], the IC50 was found to be 45 nM and the Ki stood at 23 nM. Turning to `COc1ccccc1N1CCN(CCCCN2Cc3c(Cl)nc4ccccc4c3C2=O)CC1`, the Ki in [1] amounted to 17 nM.

For the compound `COc1ccccc1N1CCN(CCCN2Cc3ccc4ccccc4c3C2=O)CC1`, in assay [1], the Ki was determined as 46 nM. Regarding `O=C1c2c(ccc3ccccc23)CN1CCCCCN1CCN(c2cccc(Cl)c2Cl)CC1`, the Ki in assay [1] came to 490 nM. In the case of `COc1ccccc1N1CCN(CCCCN2Cc3ccc4ccccc4c3C2=O)CC1`, the Ki in assay [1] was 13 nM. On to `O=C1c2cc3ccccc3nc2CN1CCCCCN1CCN(c2cccc(Cl)c2Cl)CC1`, for which, in assay [1], the Ki came to 58 nM. `COc1ccc(C(=O)O[C@H]2CC[C@@]3(C)[C@@H]4CC[C@H]5[C@]6(O)C[C@H](O)[C@@]7(O)[C@@H](CN8C[C@@H](C)CC[C@H]8[C@@]7(C)O)[C@]6(O)C[C@@]53O[C@]24O)cc1OC` [VERATRIDINE]: in [6], the IC50 was found to be 5200 nM and the Ki is 4700 nM. Consider `O=C1c2cc3ccccc3nc2CN1CCCCN1CCN(c2cccc(Cl)c2Cl)CC1`, for which the Ki in assay [1] worked out at 30 nM. Regarding `COc1ccc(CCN(C)CCCC(C#N)(c2cc(OC)c(OC)c(OC)c2)C(C)C)cc1OC` (centres undefined) [GALLOPAMIL], in assay [7], the IC50 is listed as 1.1 ×10⁻⁸ M and the Ki came to 5.4 ×10⁻⁹ M.

On to `C[N+]1(C)CCC(OC(=O)C(c2ccccc2)c2ccccc2)CC1` [4-DAMP], for which, in assay [8], the IC50 came to 0.45 nM and the Ki came to 0.22 nM. As to `CC[C@H](C)[C@H](NC(=O)CNC(=O)[C@H](CC(=O)O)NC(=O)[C@H](CO)NC(=O)[C@@H](N)Cc1cnc[nH]1)C(=O)N[C@@H](Cc1ccccc1)C(=O)N[C@H](C(=O)N[C@@H](CC(=O)O)C(=O)N[C@@H](CO)C(=O)N[C@@H](Cc1ccc(O)cc1)C(=O)N[C@@H](CO)C(=O)N[C@@H](CCCNC(=N)N)C(=O)N[C@@H](Cc1ccc(O)cc1)C(=O)N[C@@H](CCCNC(=N)N)C(=O)N[C@@H](CCCCN)C(=O)N[C@@H](CCC(N)=O)C(=O)N[C@@H](CCSC)C(=O)N[C@@H](C)C(=O)N[C@H](C(=O)N[C@@H](CCCCN)C(=O)N[C@@H](CCCCN)C(=O)N[C@@H](Cc1ccc(O)cc1)C(=O)N[C@@H](CC(C)C)C(=O)N[C@@H](C)C(=O)N[C@@H](C)C(=O)N[C@H](C(=O)N[C@@H](CC(C)C)C(=O)NCC(=O)N[C@@H](CCCCN)C(=O)N[C@@H](CCCNC(=N)N)C(=O)N[C@@H](Cc1ccc(O)cc1)C(=O)N[C@@H](CCCCN)C(=O)N[C@@H](CCC(N)=O)C(=O)N[C@@H](CCCNC(=N)N)C(=O)N[C@H](C(=O)N[C@@H](CCCCN)C(=O)N[C@@H](CC(N)=O)C(=O)N[C@@H](CCCCN)C(N)=O)C(C)C)C(C)C)C(C)C)[C@@H](C)O`, in [9], the IC50 was determined as 0.057 nM and the Ki was found to be 0.049 nM. Consider `COc1ccccc1N1CCN(CCCCN2Cc3nc4ccccc4cc3C2=O)CC1`, for which the Ki in assay [1] was 15 nM.

In the case of `CCC(C)N(C)C(=O)c1cc2ccccc2c(-c2ccccc2Cl)n1` (centres undefined) [PK-11195], in assay [10], the IC50 was determined as 0.99 nM and the Ki came out at 0.89 nM. In the case of `COc1cc(OC)c(C(=O)CCCCN2CCC3(CC2)NC(=O)NC3=O)cc1NS(=O)(=O)c1ccc(C(F)(F)F)cc1` [RS-102,221], in [11], the IC50 was found to be 2.7 nM and the Ki was determined as 0.91 nM. For `O=C1c2c(ccc3ccccc23)CN1CCCCN1CCN(c2cccc(Cl)c2Cl)CC1`, in [1], the Ki was found to be 31 nM.

As for `C=C(C)[C@@H]1[C@H]2OC(=O)[C@@H]1[C@]1(O)C[C@H]3O[C@]34C(=O)O[C@H]2[C@]14C` [PICROTOXININ], in assay [12], the IC50 came out at 120 nM and the Ki was 96 nM.
